This note sets out measurements from paper PMC6680701, “Brain Delivery of Thyrotropin-Releasing Hormone via a Novel Prodrug Approach” (Pharmaceutics, 2019).

Square brackets hold non-standard residues; d marks the D form. Peptide text beside a SMILES is read from it. ξ: configuration not given here. ξGly(decyl) = CCCCCCCCCCC(N)C(=O)O

Data set [1] in a line: In vitro metabolic stability in plasma. Format: in vitro ADME. Conditions: male CD-1 mouse plasma, 10 µM test compound, n = 3, ± SD; for half-life: mouse, plasma, read-out: t1/2 in Plasma. As for the experimental part: (§1) Metabolic stability studies were carried out as reported before using freshly made brain homogenate (20% w/v) and plasma at 37 °C, in triplicate. For obtaining brain homogenates, a Bead Bug microtube homogenizer (Benchmark Scientific, Edison, NJ, USA) was used. For obtaining plasma, blood was collected in BD Vacutainer® Sodium Heparin tubes (Becton, Dickinson and Co., Franklin Lakes, NJ, USA) followed by centrifugation. Each biological matrix was spiked with compound (1) or TRH to create 10 µM solutions. KYP-2047, a POP inhibitor, was used in selected experiments at 50 µM concentration. Sample aliquots (100 µL) of TRH-containing matrices were removed after 2, 4, 6, 8, 10, 15, and 30 min, while sample aliquots (100 µL) of prodrug-containing matrices were obtained at 5, 10, 20, 30, 40, 60, 90, 120, and 210 min. Sample aliquots were added to 200 µL of acetic acid solution (20% v/v) in acetonitrile, thoroughly vortexed and, then, centrifuged before LC–MS/MS analysis. For LC separation, a Kinetex-C8 column (10 cm × 4.6 mm i.d., dp = 2.6 µm; Phenomenex; Torrance, CA, USA) with the eluent mixed from (A) H2O with 0.1% (v/v) formic acid and (B) acetonitrile with 0.1% (v/v) formic acid, flow rate of 400 µL/min, and gradient elution by a 10-min linear program from 0% B to 90% B were employed. Half-life (t1/2) values were calculated by assuming pseudo-first-order degradation.

Data set [2] is described as follows: In vitro metabolic stability in brain homogenate. Format: in vitro ADME. Conditions: mouse, male CD-1 mouse brain homogenate, 10 µM test compound. How it is done: as §1
The mark [3] stands for this setting: 37 °C, n = 3, ± SD, read-out: t1/2 in 20% (w/v) Brain Homogenate.

Take `NC(=O)[C@@H]1CCCN1C(=O)[C@H](Cc1cnc[nH]1)NC(=O)[C@@H]1CCC(=O)N1` [TRH, pGlu-His-Pro-NH2, reference compound]: the half-life was ~0.117 h in data set [1] (37 °C) and < 0.0833 h in data set [2] (setting [3]).
On to `CCCCCCCCCCC(N)C(=O)NC(CCCCCCCCCC)C(=O)N1CCC[C@H]1C(=O)N1CCC[C@H]1C(=O)N[C@@H](CCC(N)=O)C(=O)N[C@@H](Cc1c[nH]cn1)C(=O)N1CCC[C@H]1C(N)=O` (stereo partly drawn) [(1), C12-C12-Pro-Pro-Gln-His-Pro-NH2] (H-[ξGly(decyl)][ξGly(decyl)]PPQHP-NH2), for which the half-life was 1.67 ± 0.117 h in data set [1] (37 °C); 1.92 ± 0.217 h in data set [1] (with POP inhibitor KYP-2047 at 50 µM); 0.783 ± 0.1 h in data set [2] (setting [3]); > 24 h in data set [2] (with POP inhibitor KYP-2047 at 50 µM, n = 3, read-out: t1/2 in 20% (w/v) Brain Homogenate). Further, the “t1/2 in Plasma” value in data set [1] (with POP inhibitor KYP-2047 at 50 µM, listed as prodrug) was “did not change”.
